In patent US20250171459A1, “2-METHYL-4',5'-DIHYDROSPIRO[PIPERIDINE-4,7'-THIENO[2,3-C]PYRAN] DERIVATIVES AS INHIBITORS OF APOL1 AND METHODS OF USING SAME” (Vertex Pharmaceuticals Incorporated, priority 2022, published 2025):

Target: T1, APOL1 (Homo sapiens, UniProt O14791)
T1 sequence (O14791 1-398 S342G/I384M): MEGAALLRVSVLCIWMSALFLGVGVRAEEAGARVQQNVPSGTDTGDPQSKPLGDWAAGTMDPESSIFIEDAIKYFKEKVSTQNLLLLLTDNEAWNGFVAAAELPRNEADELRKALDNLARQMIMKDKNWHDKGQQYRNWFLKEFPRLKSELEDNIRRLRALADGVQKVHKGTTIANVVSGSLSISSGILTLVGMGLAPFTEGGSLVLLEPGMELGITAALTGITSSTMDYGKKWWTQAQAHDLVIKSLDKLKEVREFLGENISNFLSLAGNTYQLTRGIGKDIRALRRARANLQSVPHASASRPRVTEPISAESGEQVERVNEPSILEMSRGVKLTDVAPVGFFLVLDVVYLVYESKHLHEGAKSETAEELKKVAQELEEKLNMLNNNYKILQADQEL
Experiment: MultiTox-Fluor Multiplex Cytotoxicity Assay in tet-inducible APOL1 T-REx-HEK293 cells (cell rescue, ratio of dead to live cells)
Format: cell-based
Settings: tet-inducible transgenic APOL1 T-REx-HEK293 cell lines, 50 ng/mL tet, 24 hours; read-out: IP50 (i.e., IC50 for cell proliferation)
Method in brief: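 T-REx-HEK293 cells with tet-inducible APOL1 were treated with compound (10 μM top, 10-point 3-fold dilution, duplicate) plus 50 ng/mL tetracycline for 24 h at 37° C, in DMEM with 2% tet-free FBS. MultiTox-Fluor protease signals gave a dead/live ratio, normalized to no tet (100% viability) and tet alone (0%).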

| SMILES | IC50 [µM] |
| --- | --- |
| C[C@H]1C[C@@]2(CCN1Cc1cnn(CC(O)C3CCC3)c1)OCCc1c2sc(C(F)(F)F)c1CO (stereo partly shown) [Compound 944] | < 0.1 |
| C[C@H]1C[C@@]2(CCN1Cc1cnn(CC3(O)CC(C#N)C3)c1)OCCc1c2sc(C(F)(F)F)c1CO (stereo partly shown) [Compound 954] | < 0.1 |
| CCc1cc2c(s1)CCO[C@@]21CCN(C[C@H]2C[C@@H](NC(=O)c3cnc4c(c3)CCC4)C2)[C@@H](C)C1 [Compound 316] | < 0.1 |
| C[C@H]1C[C@@]2(CCN1Cc1cn(CCS(C)(=O)=O)nn1)OCC(F)(F)c1cc(Cl)sc12 [Compound 862, (2S,4R)-2′-chloro-4′,4′-difluoro-2-methyl-1-((1-(2-(methylsulfonyl)ethyl)-1H-1,2,3-triazol-4-yl)methyl)-4′,5′-dihydrospiro[piperidine-4,7′-thieno[2,3-c]pyran]] | 0.1 to 0.5 |
| CCc1cc2c(s1)CCOC21CCN(Cc2cnc(C(C)O)s2)CC1 (stereo not shown) [Compound 1143] | 0.5 to 1 |
| C[C@H]1C[C@@]2(CCN1Cc1ccon1)OCCc1cc(CC(F)F)sc12 [Compound 579] | < 0.1 |
| CCc1cc2c(s1)CCO[C@@]21CCN(CC2CN(C(=O)CC3CCS(=O)(=O)CC3)C2)[C@@H](C)C1 [Compound 444] | < 0.1 |
| CCc1cc2c(s1)CCO[C@@]21CCN(C[C@H]2C[C@@H](NC(=O)c3nnc(C)o3)C2)[C@@H](C)C1 [Compound 347] | 0.1 to 0.5 |
| CCc1cc2c(s1)CCO[C@@]21CCN(C[C@H]2C[C@@H](NC(=O)C3(C)COC3)C2)[C@@H](C)C1 [Compound 359] | 0.1 to 0.5 |
| CCCc1cc2c(s1)CCO[C@@]21CCN(Cc2cn(CCS(C)(=O)=O)nn2)[C@@H](C)C1 [Compound 513] | 0.1 to 0.5 |
| C[C@H]1C[C@@]2(CCN1Cc1cnn(CC(C)(CO)CO)c1)OCCc1cc(Cl)sc12 [Compound 634] | < 0.1 |
| Cc1ccc(CN2CC[C@]3(C[C@@H]2C)OCCc2c3sc(Cl)c2CO)c(C)n1 [Compound 732] | 0.5 to 1 |
| CCc1cc2c(s1)CCO[C@@]21CCN(Cc2cn(CC3(CO)CCOC3)nn2)[C@@H](C)C1 (stereo partly shown) [Compound 106] | 0.1 to 0.5 |
| Cc1ncc(CN2CC[C@]3(C[C@@H]2C)OCCc2c3sc(Cl)c2CO)cn1 [Compound 738] | 0.1 to 0.5 |
| CCc1cc2c(s1)CCO[C@@]21CCN(Cc2cn(C3CCCN(S(C)(=O)=O)C3)nn2)[C@@H](C)C1 (stereo partly shown) [Compound 28] | 0.1 to 0.5 |
| C[C@H]1C[C@@]2(CCN1Cc1cncn1C)OCCc1cc(CC(F)F)sc12 [Compound 587] | 0.1 to 0.5 |
| CCc1cc2c(s1)CCO[C@@]21CCN(Cc2cn(C3CN(S(C)(=O)=O)C3)nn2)[C@@H](C)C1 [Compound 162] | < 0.1 |
| CCc1cc2c(s1)CCO[C@@]21CCN(CC2CN(C(=O)C3CC(=O)NC3=O)C2)[C@@H](C)C1 (stereo partly shown) [Compound 472] | < 0.1 |
| CC(O)CCN1CC[C@]2(C[C@@H]1C)OC[C@H](O)c1cc(Cl)sc12 (stereo partly shown) [Compound 785] | 0.5 to 1 |
| CCc1cc2c(s1)CCO[C@@]21CCN(Cc2cn(CCOc3nonc3C)nn2)[C@@H](C)C1 [Compound 185] | < 0.1 |

| SMILES | IC50 [µM] |
| --- | --- |
| C[C@H]1C[C@@]2(CCN1Cc1cnc(N[C@H]3CC[C@H](O)CC3)nc1)OCC(O)c1cc(Cl)sc12 (mixture of isomers) [Compound 825, (2′S, 7R)-2-chloro-1′-[[2-[(4-hydroxycyclohexyl)amino]pyrimidin-5-yl]methyl]-2′-methyl-spiro[4,5-dihydrothieno[2,3-c]pyran-7,4′-piperidine]-4-ol] | < 0.1 |
| Clc1cc2c(s1)CCOC21CCN(Cc2cn[nH]c2)CC1 [Compound 1165, 2-chloro-1′-(1H-pyrazol-4-ylmethyl)spiro[6,7-dihydrothieno[3,2-c]pyran-4,4′-piperidine]] | 0.1 to 0.5 |
| [2H]C(OCC)c1cc2c(s1)[C@]1(CCN(Cc3cnn(CCS(C)(=O)=O)c3)[C@@H](C)C1)OCC2 (stereo partly drawn) [Compound 1015, (2′S, 7R)-2-[deuterio(ethoxy)methyl]-2′-methyl-1′-[[1-(2-methylsulfonylethyl)pyrazol-4-yl]methyl]spiro[4,5-dihydrothieno[2,3-c]pyran-7,4′-piperidine]] | < 0.1 |
| CCc1cc2c(s1)CCO[C@@]21CCN(CC2CN(C(=O)CCCc3c[nH]nn3)C2)[C@@H](C)C1 [Compound 471] | < 0.1 |
| CCc1cc2c(s1)CCO[C@@]21CCN(Cc2cn(Cc3cocn3)nn2)[C@@H](C)C1 [Compound 35] | 0.1 to 0.5 |
| COc1ncc(CN2CC[C@]3(C[C@@H]2C)OCCc2cc(CC(F)F)sc23)c(OC)n1 [Compound 593] | < 0.1 |
| CCc1cc2c(s1)CCO[C@@]21CCN(CC2CN(C(=O)C(C)S(C)(=O)=O)C2)[C@@H](C)C1 (stereo partly shown) [Compound 432] | < 0.1 |
| Cc1ncc(CN2CC[C@]3(C[C@@H]2C)OCCc2cc(Cl)sc23)n1C [Compound 683] | 0.5 to 1 |
| CCc1cc2c(s1)CCOC21CCN(Cc2cncs2)CC1 [Compound 1142] | 0.5 to 1 |
| C[C@H]1C[C@@]2(CCN1Cc1cnn(CC3(C)COC3)c1)OCCc1c2sc(C(F)(F)F)c1CO [Compound 910] | 0.1 to 0.5 |
| CCc1cc2c(s1)CCO[C@@]21CCN(C[C@H]2C[C@@H](NS(=O)(=O)c3ccccc3F)C2)[C@@H](C)C1 [Compound 408] | < 0.1 |
| C[C@H]1C[C@@]2(CCN1Cc1ncccc1F)OCCc1cc(CC(F)F)sc12 [Compound 589] | 0.5 to 1 |
| CCc1cc2c(s1)CCOC21CCN(Cc2cn(Cc3cc(C(N)=O)co3)nn2)CC1 [Compound 1106] | 0.5 to 1 |
| C[C@H]1C[C@@]2(CCN1Cc1cnn(C)c1)OCC(O)c1cc(Cl)sc12 (mixture of isomers) [Compound 818] | < 0.1 |
| CCc1cc2c(s1)CCOC21CCN(Cc2cn(CC(=O)NCCC(F)(F)F)nn2)CC1 [Compound 1096] | 0.5 to 1 |
| CCc1cc2c(s1)CCO[C@@]21CCN(Cc2cn(CC(C)(CO)OC)nn2)[C@@H](C)C1 (stereo partly shown) [Compound 110] | 0.1 to 0.5 |
| C[C@H]1C[C@@]2(CCN1Cc1cn(-c3ncccn3)cn1)OCCc1cc(Cl)sc12 [Compound 650] | 0.1 to 0.5 |
| C[C@H]1C[C@@]2(CCN1Cc1ccncc1F)OCCc1cc(Cl)sc12 [Compound 678] | 0.5 to 1 |
| CCc1cc2c(s1)CCO[C@@]21CCN(Cc2cn(CCSC(F)(F)F)nn2)[C@@H](C)C1 [Compound 22] | < 0.1 |
| CCc1cc2c(s1)CCO[C@@]21CCN(Cc2cn(Cc3nc(C)no3)nn2)[C@@H](C)C1 [Compound 165] | < 0.1 |

| SMILES | IC50 [µM] |
| --- | --- |
| CCc1cc2c(s1)CCO[C@@]21CCN(Cc2ccc(N[C@@H]3C=C[C@H](CO)C3)nc2)[C@@H](C)C1 [Compound 202] | < 0.1 |
| C[C@H]1C[C@@]2(CCN1Cc1cnn(CC3CCNC(=O)C3)c1)OCCc1c2sc(C(F)(F)F)c1CO (stereo partly shown) [Compound 917] | < 0.1 |
| C[C@H]1C[C@@]2(CCN1Cc1cnn(C[C@@H](O)CO)c1)OC[C@@H](O)c1cc(C(F)(F)F)sc12 [Compound 969] | < 0.1 |
| CCc1cc2c(s1)CCO[C@@]21CCN(Cc2cn(C(C)(C)CCS(C)(=O)=O)nn2)[C@@H](C)C1 [Compound 192] | 0.5 to 1 |
| C[C@H]1C[C@@]2(CCN1Cc1cnn(CC(C)(O)C(=O)NC3CC3)c1)OCCc1c2sc(C(F)(F)F)c1CO (stereo partly drawn) [Compound 991, N-cyclopropyl-2-hydroxy-3-[4-[[(2′S, 7R)-3-(hydroxymethyl)-2′-methyl-2-(trifluoromethyl)spiro[4,5-dihydrothieno[2,3-c]pyran-7,4′-piperidine]-1′-yl]methyl]pyrazol-1-yl]-2-methyl-propanamide] | < 0.1 |
| C[C@H]1C[C@@]2(CCN1Cc1cnn(CC(O)CC3(O)CCOC3)c1)OCCc1c2sc(C(F)(F)F)c1CO (stereo partly shown) [Compound 942] | < 0.1 |
| C[C@H]1C[C@@]2(CCN1Cc1cn(CC(C)(CO)CO)nn1)OC[C@](O)(C(F)F)c1cc(Cl)sc12 [Compound 840] | < 0.1 |
| C[C@H]1C[C@@]2(CCN1Cc1cnn(CCS(C)(=O)=O)c1)OC[C@](O)(C(F)F)c1cc(Cl)sc12 [Compound 827, (2′S,4S,7R)-2-chloro-4-(difluoromethyl)-2′-methyl-1′-[[1-(2-methylsulfonylethyl)pyrazol-4-yl]methyl]spiro[5H-thieno[2,3-c]pyran-7,4′-piperidine]-4-ol] | < 0.1 |
| CCc1cc2c(s1)CCO[C@@]21CCN(CC2CN(C(=O)c3ncon3)C2)[C@@H](C)C1 [Compound 474] | < 0.1 |
| CCc1cc2c(s1)CCOC21CCN(Cc2cn(C)nn2)CC1 [Compound 1158] | 0.5 to 1 |
| C[C@H]1C[C@@]2(CCN1Cc1ccc(OCC(=O)N3CCOCC3)cc1)OCCc1cc(Cl)sc12 [Compound 648] | < 0.1 |
| CCc1cc2c(s1)CCO[C@@]21CCN(Cc2cnc(NC3CNC(=O)C3)nc2)[C@@H](C)C1 (stereo partly shown) [Compound 218] | < 0.1 |
| C[C@H]1C[C@@]2(CCN1Cc1ccc(S(C)(=O)=O)cc1)OC[C@H](O)c1cc(Cl)sc12 [Compound 802] | 0.1 to 0.5 |
| CNC(=O)[C@H](O)Cn1cc(CN2CC[C@]3(C[C@@H]2C)OC[C@@H](O)c2cc(C(F)(F)F)sc23)cn1 [Compound 993] | 0.1 to 0.5 |
| C[C@H]1C[C@@]2(CCN1Cc1ccnn1C)OCCc1cc(CC(F)F)sc12 [Compound 571] | 0.1 to 0.5 |
| C[C@H]1C[C@@]2(CCN1Cc1cnn(CC3CC(C)(C)C(=O)O3)c1)OCCc1c2sc(C(F)(F)F)c1CO (stereo partly shown) [Compound 983] | < 0.1 |
| C[C@H]1C[C@@]2(CCN1Cc1cccc(OCC(N)=O)c1)OCCc1c2sc(Cl)c1CO [Compound 718] | 0.1 to 0.5 |
| CCc1cc2c(s1)CCOC21CCN(Cc2ccc(C(=O)N(C)[C@H]3CC[C@H](O)CC3)nc2)CC1 [Compound 1065] | 0.5 to 1 |
